Values of other authors as cited in publication PMC7867784 (Translational Lung Cancer Research, 2021).

Tested on: RET-rearranged NSCLC
Settings: cited from earlier work; for response rate and PFS in NSCLC with RET rearrangement: recent clinical trials

| SMILES | response rate (RET-rearranged NSCLC, 7/25 cases) | median PFS (RET-rearranged NSCLC) | response rate and PFS in NSCLC with RET rearrangement |
| --- | --- | --- | --- |
| COc1cc2nccc(Oc3ccc(NC(=O)C4(C(=O)Nc5ccc(F)cc5)CC4)cc3)c2cc1OC [cabozantinib] | 28% | 5.5 months | – |
| CO[C@]1(C(=O)N[C@@H](C)c2ccc(-n3cc(F)cn3)nc2)CC[C@H](c2nc(C)cc(Nc3cc(C)[nH]n3)n2)CC1 [pralsetinib] | – | – | high response rate and prolonged PFS |
| COc1ccc(CN2C3CC2CN(c2ccc(-c4cc(OCC(C)(C)O)cn5ncc(C#N)c45)cn2)C3)cn1 [selpercatinib] | – | – | high response rate and prolonged PFS |
